For the assay, the system named is C. albicans (CA-1, Strain SLU-1). Description: Radial diffusion assay. Format: cell-based, Candida albicans. The settings on record: pmoles of peptide added to well to achieve a 30 mm^2 zone, PROBIT analysis; crude or purified (P′) peptide. As for the experimental part: In the radial diffusion assay procedures, the CA-1 cultures and peptide solutions were prepared as in the broth assay procedure described above. Ten mL of molten underlayer agarose comprising 3% Sabouraud Dextrose broth, 1% agarose (Pharmacia, Piscataway, N.J.), 0.02% Tween 20, and 10 mM sodium phosphate at pH 7.4, was added to polystyrene tubes and maintained in a 56° C. water bath until the addition of yeast. Tubes were cooled to approximately 45° C., yeast were added to give a final concentration of 1×10^6 CFU/mL, and the tubes were mixed again by inverting. The contents were poured into level square petri dishes and distributed evenly. […] A series of wells were punched into the hardened agarose using a sterile 3 mm punch attached to a vacuum apparatus.
Peptides to be assayed were 2-fold serially diluted in Dulbecco's PBS (D-PBS) starting from a concentration of approximately 1 mg/mL. Five μL of each dilution were added to each well and the plates were incubated at 37° C. for 3 hours. An overlayer of 10 mL of molten agarose comprising 6% Sabouraud Dextrose broth, 1% agarose, and 10 mM sodium phosphate, pH 7.4, (at approximately 45° C.) was then added and plates were incubated overnight at 37° C. Following this overnight incubation, a dilute Coomassie solution was poured into the plates and allowed to stain for 24 hours.
Clear zones of growth inhibition around each well were measured with calipers. The actual area of growth inhibition (mm^2) was calculated by subtracting the area of the well. Table 1 below sets out the results of the radial diffusion assays for tested peptides in terms of the number of picomoles (pmol) of peptide required to establish a 30 mm^2 area of growth inhibition calculated by PROBIT analysis (e.g., calculated from regression of the linear portion of log-concentration dose-response curve, log pmol/well vs. net area of inhibition).

The values below come from patent publication US6664231B1, “Anti-fungal peptides” (priority 1993, dated 2003).

The structures appear in SMILES notation. Square brackets hold non-standard residues; d marks the D form. Peptide text beside a SMILES is read from it. Phe(4-NH2) = Nc1ccc(C[C@H](N)C(=O)O)cc1; 1Nal = N[C@@H](Cc1cccc2ccccc12)C(=O)O; d2Nal = N[C@H](Cc1ccc2ccccc2c1)C(=O)O; Tle = CC(C)(C)[C@H](N)C(=O)O; Abu = CC[C@H](N)C(=O)O; Aib = CC(C)(N)C(=O)O; GABA = NCCCC(=O)O; βAla = NCCC(=O)O Bounds are passed on as bounds.

With `CC[C@H](C)[C@H](NC(=O)[C@H](CC(C)C)NC(=O)[C@H](Cc1c[nH]c2ccccc12)NC(=O)CNC(=O)[C@@H](NC(=O)[C@H](CCCCN)NC(=O)[C@H](CO)NC(=O)[C@@H](N)CCCCN)C(C)C)C(=O)N[C@@H](Cc1ccc(N)cc1)C(=O)N[C@@H](Cc1cccc2ccccc12)C(=O)N[C@@H](Cc1ccccc1)C(=O)N[C@@H](Cc1c[nH]cn1)C(=O)N[C@@H](CCCCN)C(=O)N[C@@H](CCCCN)C(N)=O` [XMP.235] (H-KSKVGWLI[Phe(4-NH2)][1Nal]FHKK-NH2), the “C. albicans pmol/30 mm^2 zone” value is listed as “b (No detectable activity up to 5 μg/well)”. On to `CC[C@H](C)[C@H](NC(=O)[C@H](CC(C)C)NC(=O)[C@H](Cc1c[nH]c2ccccc12)NC(=O)[C@H](Cc1ccc(N)cc1)NC(=O)[C@@H](NC(=O)[C@H](CCCCN)NC(=O)[C@H](CO)NC(=O)[C@@H](N)CCCCN)C(C)C)C(=O)N[C@@H](CCC(N)=O)C(=O)N[C@@H](Cc1cccc2ccccc12)C(=O)N[C@@H](Cc1ccccc1)C(=O)N[C@@H](Cc1c[nH]cn1)C(=O)N[C@@H](CCCCN)C(=O)N[C@@H](CCCCN)C(N)=O` [XMP.236] (H-KSKV[Phe(4-NH2)]WLIQ[1Nal]FHKK-NH2), for which the “C. albicans pmol/30 mm^2 zone” value was >2,631 pmol/30 mm^2 zone. Then `CC[C@H](C)[C@H](NC(=O)[C@H](CC(C)C)NC(=O)[C@H](Cc1c[nH]c2ccccc12)NC(=O)CNC(=O)[C@@H](NC(=O)[C@H](CCCCN)NC(=O)[C@H](CO)NC(=O)[C@@H](N)CCCCN)C(C)C)C(=O)N[C@@H](CCC(N)=O)C(=O)N[C@@H](Cc1cccc2ccccc12)C(=O)N[C@@H](Cc1c[nH]c2ccccc12)C(=O)N[C@@H](Cc1c[nH]cn1)C(=O)N[C@@H](CCCCN)C(=O)N[C@@H](CCCCN)C(N)=O` [XMP.237] (H-KSKVGWLIQ[1Nal]WHKK-NH2), with >2,777 pmol/30 mm^2 zone; and `CC[C@H](C)[C@H](NC(=O)[C@H](CC(C)C)NC(=O)[C@H](Cc1c[nH]c2ccccc12)NC(=O)[C@H](Cc1ccc(N)cc1)NC(=O)[C@@H](NC(=O)[C@H](CCCCN)NC(=O)[C@H](CO)NC(=O)[C@@H](N)CCCCN)C(C)C)C(=O)N[C@@H](Cc1ccc(N)cc1)C(=O)N[C@@H](CC(C)C)C(=O)N[C@@H](Cc1ccccc1)C(=O)N[C@@H](Cc1c[nH]cn1)C(=O)N[C@@H](CCCCN)C(=O)N[C@@H](CCCCN)C(N)=O` [XMP.238] (H-KSKV[Phe(4-NH2)]WLI[Phe(4-NH2)]LFHKK-NH2), with 2,702 pmol/30 mm^2 zone. Then `CC[C@H](C)[C@H](NC(=O)[C@H](CC(C)C)NC(=O)[C@H](Cc1c[nH]c2ccccc12)NC(=O)CNC(=O)[C@@H](NC(=O)[C@H](CCCCN)NC(=O)[C@H](CO)NC(=O)[C@@H](N)CCCCN)C(C)C)C(=O)N[C@@H](Cc1ccc(N)cc1)C(=O)N[C@@H](CC(C)C)C(=O)N[C@@H](Cc1c[nH]c2ccccc12)C(=O)N[C@@H](Cc1c[nH]cn1)C(=O)N[C@@H](CCCCN)C(=O)N[C@@H](CCCCN)C(N)=O` [XMP.239] (H-KSKVGWLI[Phe(4-NH2)]LWHKK-NH2), with >2,802 pmol/30 mm^2 zone. To `CC[C@H](C)[C@H](NC(=O)[C@H](CC(C)C)NC(=O)[C@H](Cc1c[nH]c2ccccc12)NC(=O)[C@H](Cc1ccc(N)cc1)NC(=O)[C@@H](NC(=O)[C@H](CCCCN)NC(=O)[C@H](CO)NC(=O)[C@@H](N)CCCCN)C(C)C)C(=O)N[C@@H](CCC(N)=O)C(=O)N[C@@H](CC(C)C)C(=O)N[C@@H](Cc1c[nH]c2ccccc12)C(=O)N[C@@H](Cc1c[nH]cn1)C(=O)N[C@@H](CCCCN)C(=O)N[C@@H](CCCCN)C(N)=O` [XMP.240] (H-KSKV[Phe(4-NH2)]WLIQLWHKK-NH2) belongs >2,802 pmol/30 mm^2 zone; to `CC[C@H](C)[C@H](NC(=O)[C@H](CC(C)C)NC(=O)[C@@H](Cc1ccc2ccccc2c1)NC(=O)CNC(=O)[C@@H](NC(=O)[C@H](CCCCN)NC(=O)[C@H](CO)NC(=O)[C@@H](N)CCCCN)C(C)C)C(=O)N[C@@H](CC(C)C)C(=O)N[C@@H](CC(C)C)C(=O)N[C@@H](Cc1ccccc1)C(=O)N[C@@H](Cc1c[nH]cn1)C(=O)N[C@@H](CCCCN)C(=O)N[C@@H](CCCCN)C(N)=O` [XMP.242] (H-KSKVG[d2Nal]LILLFHKK-NH2), 359 pmol/30 mm^2 zone; to `CC[C@H](C)[C@H](NC(=O)[C@H](CC(C)C)NC(=O)[C@@H](Cc1ccc2ccccc2c1)NC(=O)CNC(=O)[C@@H](NC(=O)[C@H](CCCCN)NC(=O)[C@H](CO)NC(=O)[C@@H](N)CCCCN)C(C)C)C(=O)N[C@@H](CCC(N)=O)C(=O)N[C@@H](CC(C)C)C(=O)N[C@@H](Cc1c[nH]c2ccccc12)C(=O)N[C@@H](Cc1c[nH]cn1)C(=O)N[C@@H](CCCCN)C(=O)N[C@@H](CCCCN)C(N)=O` [XMP.243] (H-KSKVG[d2Nal]LIQLWHKK-NH2), 716 pmol/30 mm^2 zone. For the molecule `CC[C@H](C)[C@H](NC(=O)[C@H](CC(C)C)NC(=O)[C@@H](Cc1ccc2ccccc2c1)NC(=O)CNC(=O)[C@@H](NC(=O)[C@H](CCCCN)NC(=O)[C@H](CO)NC(=O)[C@@H](N)CCCCN)C(C)C)C(=O)N[C@@H](CC(C)C)C(=O)N[C@@H](CC(C)C)C(=O)N[C@@H](Cc1c[nH]c2ccccc12)C(=O)N[C@@H](Cc1c[nH]cn1)C(=O)N[C@@H](CCCCN)C(=O)N[C@@H](CCCCN)C(N)=O` [XMP.244] (H-KSKVG[d2Nal]LILLWHKK-NH2), the “C. albicans pmol/30 mm^2 zone” value stood at 859 pmol/30 mm^2 zone.

`CC[C@H](C)[C@H](NC(=O)[C@H](CC(C)C)NC(=O)[C@@H](C)NC(=O)CNC(=O)[C@@H](NC(=O)[C@H](CCCCN)NC(=O)[C@H](CO)NC(=O)[C@@H](N)CCCCN)C(C)C)C(=O)N[C@@H](CCC(N)=O)C(=O)N[C@@H](CC(C)C)C(=O)N[C@@H](Cc1ccccc1)C(=O)N[C@@H](Cc1c[nH]cn1)C(=O)N[C@@H](CCCCN)C(=O)N[C@@H](CCCCN)C(N)=O` [XMP.252] (H-KSKVG[dA]LIQLFHKK-NH2): the “C. albicans pmol/30 mm^2 zone” value was 1,613 pmol/30 mm^2 zone. For `CC[C@H](C)[C@H](NC(=O)[C@H](CC(C)C)NC(=O)[C@H](NC(=O)CNC(=O)[C@@H](NC(=O)[C@H](CCCCN)NC(=O)[C@H](CO)NC(=O)[C@@H](N)CCCCN)C(C)C)C(C)C)C(=O)N[C@@H](CCC(N)=O)C(=O)N[C@@H](CC(C)C)C(=O)N[C@@H](Cc1ccccc1)C(=O)N[C@@H](Cc1c[nH]cn1)C(=O)N[C@@H](CCCCN)C(=O)N[C@@H](CCCCN)C(N)=O` [XMP.253] (H-KSKVG[dV]LIQLFHKK-NH2), the “C. albicans pmol/30 mm^2 zone” value was 1,108 pmol/30 mm^2 zone. With `CC[C@H](C)[C@H](NC(=O)[C@H](CC(C)C)NC(=O)CCNC(=O)CNC(=O)[C@@H](NC(=O)[C@H](CCCCN)NC(=O)[C@H](CO)NC(=O)[C@@H](N)CCCCN)C(C)C)C(=O)N[C@@H](CCC(N)=O)C(=O)N[C@@H](CC(C)C)C(=O)N[C@@H](Cc1ccccc1)C(=O)N[C@@H](Cc1c[nH]cn1)C(=O)N[C@@H](CCCCN)C(=O)N[C@@H](CCCCN)C(N)=O` [XMP.254] (H-KSKVG[βAla]LIQLFHKK-NH2), the “C. albicans pmol/30 mm^2 zone” value was 1,040 pmol/30 mm^2 zone. Regarding `CC[C@H](NC(=O)CNC(=O)[C@@H](NC(=O)[C@H](CCCCN)NC(=O)[C@H](CO)NC(=O)[C@@H](N)CCCCN)C(C)C)C(=O)N[C@@H](CC(C)C)C(=O)N[C@H](C(=O)N[C@@H](CCC(N)=O)C(=O)N[C@@H](CC(C)C)C(=O)N[C@@H](Cc1ccccc1)C(=O)N[C@@H](Cc1c[nH]cn1)C(=O)N[C@@H](CCCCN)C(=O)N[C@@H](CCCCN)C(N)=O)[C@@H](C)CC` [XMP.255] (H-KSKVG[Abu]LIQLFHKK-NH2), the “C. albicans pmol/30 mm^2 zone” value is recorded as 392 pmol/30 mm^2 zone.

On to `CC[C@H](C)[C@H](NC(=O)[C@H](CC(C)C)NC(=O)CCCNC(=O)CNC(=O)[C@@H](NC(=O)[C@H](CCCCN)NC(=O)[C@H](CO)NC(=O)[C@@H](N)CCCCN)C(C)C)C(=O)N[C@@H](CCC(N)=O)C(=O)N[C@@H](CC(C)C)C(=O)N[C@@H](Cc1ccccc1)C(=O)N[C@@H](Cc1c[nH]cn1)C(=O)N[C@@H](CCCCN)C(=O)N[C@@H](CCCCN)C(N)=O` [XMP.256] (H-KSKVG[GABA]LIQLFHKK-NH2), for which the “C. albicans pmol/30 mm^2 zone” value is “b (No detectable activity up to 5 μg/well)”. In the case of `CC[C@H](C)[C@H](NC(=O)[C@H](CC(C)C)NC(=O)C(C)(C)NC(=O)CNC(=O)[C@@H](NC(=O)[C@H](CCCCN)NC(=O)[C@H](CO)NC(=O)[C@@H](N)CCCCN)C(C)C)C(=O)N[C@@H](CCC(N)=O)C(=O)N[C@@H](CC(C)C)C(=O)N[C@@H](Cc1ccccc1)C(=O)N[C@@H](Cc1c[nH]cn1)C(=O)N[C@@H](CCCCN)C(=O)N[C@@H](CCCCN)C(N)=O` [XMP.257] (H-KSKVG[Aib]LIQLFHKK-NH2), the “C. albicans pmol/30 mm^2 zone” value is given as 1,321 pmol/30 mm^2 zone. For the molecule `CC[C@H](C)[C@H](NC(=O)[C@H](CC(C)C)NC(=O)[C@@H](NC(=O)CNC(=O)[C@@H](NC(=O)[C@H](CCCCN)NC(=O)[C@H](CO)NC(=O)[C@@H](N)CCCCN)C(C)C)C(C)(C)C)C(=O)N[C@@H](CCC(N)=O)C(=O)N[C@@H](CC(C)C)C(=O)N[C@@H](Cc1ccccc1)C(=O)N[C@@H](Cc1c[nH]cn1)C(=O)N[C@@H](CCCCN)C(=O)N[C@@H](CCCCN)C(N)=O` [XMP.258] (H-KSKVG[Tle]LIQLFHKK-NH2), the “C. albicans pmol/30 mm^2 zone” value is on record as 880 pmol/30 mm^2 zone.
